Drawing on patent US10508120B2, “TYK2 inhibitors and uses thereof” (Nimbus Lakshmi, Inc., priority 2017, dated 2019), this text covers inhibition, IC50 and Kd for 23 compounds.

Test [1] has as its target Tyk2 kinase domain (DH1) (Homo sapiens (Human), UniProt P29597). Description: Tyk2 Radioactive Kinase Assay. As to conditions: compound at 10 μM; ATP 10 μM; read-out: Tyk2 JH1% Inhibition @ 10 μM. Format: biochemical. The procedure, abridged: (§1)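 Single-point screen: 10 μM test compound, radioactive kinase read-out, percent inhibition reported for each kinase domain.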
Test [2] addresses JAK2/JAK2 homdimeric complex (Homo sapiens (Human), UniProt O60674). Description: GM-CSF Induced pSTAT5 in Human PBMC. In kind it is cell-based. To be noted: GM-CSF 5 ng/mL for 20 minutes, pSTAT5 by MSD, read-out: PBMC_GMCSF_pSTAT5 IC50.
In test [3] the target is human TYK2 (JH2domain-pseudokinase) (Homo sapiens (Human), UniProt P29597). Kind of test: TYK2 JH2 Domain Binding Assay (KINOMEscan). In short, it runs like this: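 Pseudokinase domain binding was measured by qPCR of tagged, bead-retained kinase after 1 h room-temperature competition, with 0.9% DMSO and compound up to 30,000 nM in 3-fold steps. Hill-equation Kd, duplicate.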
human TYK2 (JH2domain-pseudokinase), sequence (P29597 556-888): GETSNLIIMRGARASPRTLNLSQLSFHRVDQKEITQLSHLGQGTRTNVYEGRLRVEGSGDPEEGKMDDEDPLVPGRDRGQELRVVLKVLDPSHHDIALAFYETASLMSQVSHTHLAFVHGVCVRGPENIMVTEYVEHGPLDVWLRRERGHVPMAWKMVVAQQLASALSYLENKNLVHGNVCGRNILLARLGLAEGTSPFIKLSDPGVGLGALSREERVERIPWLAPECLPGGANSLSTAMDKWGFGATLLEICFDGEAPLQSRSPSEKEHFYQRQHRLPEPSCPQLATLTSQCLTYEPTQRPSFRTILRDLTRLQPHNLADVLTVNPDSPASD

Test [4] concerns the target JAK2 kinase domain (JH1) (Homo sapiens (Human), UniProt O60674). Description: JAK2 Radioactive Kinase Assay. In kind it is biochemical. To be noted: compound at 10 μM; ATP 10 μM; read-out: JAK2 JH1% Inhibition @ 10 μM. The procedure, abridged: as §1
Test [5] concerns the target Tyk2/JAK2 (heterodimeric complex) (Homo sapiens (Human), UniProt P29597). Kind of test: IL-12 Induced pSTAT4 in Human PBMC. Format: cell-based. To be noted: 1.7 ng/mL IL-12. The text has this:
The IL-12 Induced pSTAT4 assay evaluates the inhibition of IL-12 induced STAT4 phophorylation mediated by Tyk2/JAK2 (heterodimeric complex).

JAK2/JAK2 homdimeric complex, sequence (O60674 whole entry, the tested form may be a part): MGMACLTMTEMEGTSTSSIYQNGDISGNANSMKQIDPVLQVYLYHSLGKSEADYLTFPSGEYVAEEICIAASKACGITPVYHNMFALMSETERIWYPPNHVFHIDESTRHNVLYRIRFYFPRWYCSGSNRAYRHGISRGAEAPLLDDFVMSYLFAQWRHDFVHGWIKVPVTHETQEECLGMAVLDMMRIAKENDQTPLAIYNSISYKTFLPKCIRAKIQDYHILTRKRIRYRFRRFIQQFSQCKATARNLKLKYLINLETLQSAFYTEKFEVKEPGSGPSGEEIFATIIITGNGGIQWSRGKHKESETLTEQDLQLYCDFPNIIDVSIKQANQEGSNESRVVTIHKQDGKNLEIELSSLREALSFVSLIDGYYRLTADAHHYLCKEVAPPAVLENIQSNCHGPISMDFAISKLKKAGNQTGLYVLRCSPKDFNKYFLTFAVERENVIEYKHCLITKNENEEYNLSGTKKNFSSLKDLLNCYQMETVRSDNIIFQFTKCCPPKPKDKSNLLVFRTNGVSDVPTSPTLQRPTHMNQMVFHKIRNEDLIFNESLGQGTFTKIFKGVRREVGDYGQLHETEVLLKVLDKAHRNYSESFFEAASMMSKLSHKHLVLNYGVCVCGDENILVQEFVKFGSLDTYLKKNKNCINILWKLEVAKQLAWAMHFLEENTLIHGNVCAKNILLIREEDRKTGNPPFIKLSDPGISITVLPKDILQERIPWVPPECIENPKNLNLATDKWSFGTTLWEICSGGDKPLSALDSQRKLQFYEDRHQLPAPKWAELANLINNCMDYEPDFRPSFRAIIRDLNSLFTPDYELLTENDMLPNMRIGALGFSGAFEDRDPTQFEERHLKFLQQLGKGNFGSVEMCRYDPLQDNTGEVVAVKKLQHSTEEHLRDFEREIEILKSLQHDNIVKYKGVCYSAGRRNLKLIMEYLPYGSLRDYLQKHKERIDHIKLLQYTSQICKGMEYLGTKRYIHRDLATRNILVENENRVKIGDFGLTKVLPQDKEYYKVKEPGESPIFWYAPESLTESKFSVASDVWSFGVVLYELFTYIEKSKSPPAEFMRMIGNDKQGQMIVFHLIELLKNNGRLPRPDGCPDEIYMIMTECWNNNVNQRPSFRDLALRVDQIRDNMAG
JAK2/JAK2 homdimeric complex, sequence (P32927 17-897 partner): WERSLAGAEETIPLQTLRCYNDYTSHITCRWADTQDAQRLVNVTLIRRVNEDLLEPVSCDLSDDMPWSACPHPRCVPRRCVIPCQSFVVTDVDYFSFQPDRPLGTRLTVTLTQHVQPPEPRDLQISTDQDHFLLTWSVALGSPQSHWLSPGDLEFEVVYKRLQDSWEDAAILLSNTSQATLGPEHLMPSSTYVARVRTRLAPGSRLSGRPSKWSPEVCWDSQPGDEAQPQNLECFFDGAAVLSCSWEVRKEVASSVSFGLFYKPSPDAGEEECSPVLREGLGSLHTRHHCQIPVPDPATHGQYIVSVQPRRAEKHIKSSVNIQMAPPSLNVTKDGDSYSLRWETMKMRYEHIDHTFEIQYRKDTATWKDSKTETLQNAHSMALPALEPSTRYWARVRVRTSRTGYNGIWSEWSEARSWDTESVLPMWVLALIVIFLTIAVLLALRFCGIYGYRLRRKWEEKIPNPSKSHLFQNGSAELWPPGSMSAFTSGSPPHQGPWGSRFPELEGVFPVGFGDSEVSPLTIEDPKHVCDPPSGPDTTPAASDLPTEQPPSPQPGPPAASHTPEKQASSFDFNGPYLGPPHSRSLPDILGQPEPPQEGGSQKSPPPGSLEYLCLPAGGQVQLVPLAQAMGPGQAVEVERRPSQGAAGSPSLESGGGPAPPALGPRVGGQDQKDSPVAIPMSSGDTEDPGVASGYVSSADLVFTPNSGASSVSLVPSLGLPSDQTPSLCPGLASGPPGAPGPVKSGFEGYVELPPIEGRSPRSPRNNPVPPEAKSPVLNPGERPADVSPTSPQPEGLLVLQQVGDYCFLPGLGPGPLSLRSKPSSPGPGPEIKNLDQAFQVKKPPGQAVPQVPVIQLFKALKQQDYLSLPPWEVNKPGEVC
JAK2 kinase domain (JH1), sequence (O60674 849-1124): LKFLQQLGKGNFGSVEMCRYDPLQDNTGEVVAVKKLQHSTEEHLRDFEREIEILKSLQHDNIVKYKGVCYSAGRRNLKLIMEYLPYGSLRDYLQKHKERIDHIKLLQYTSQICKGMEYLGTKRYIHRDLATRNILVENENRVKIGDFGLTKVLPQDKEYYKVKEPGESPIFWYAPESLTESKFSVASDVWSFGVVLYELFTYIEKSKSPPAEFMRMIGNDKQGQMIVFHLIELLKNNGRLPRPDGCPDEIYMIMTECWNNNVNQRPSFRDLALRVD
Tyk2/JAK2 (heterodimeric complex), sequence (P29597 whole entry, other chains not shown): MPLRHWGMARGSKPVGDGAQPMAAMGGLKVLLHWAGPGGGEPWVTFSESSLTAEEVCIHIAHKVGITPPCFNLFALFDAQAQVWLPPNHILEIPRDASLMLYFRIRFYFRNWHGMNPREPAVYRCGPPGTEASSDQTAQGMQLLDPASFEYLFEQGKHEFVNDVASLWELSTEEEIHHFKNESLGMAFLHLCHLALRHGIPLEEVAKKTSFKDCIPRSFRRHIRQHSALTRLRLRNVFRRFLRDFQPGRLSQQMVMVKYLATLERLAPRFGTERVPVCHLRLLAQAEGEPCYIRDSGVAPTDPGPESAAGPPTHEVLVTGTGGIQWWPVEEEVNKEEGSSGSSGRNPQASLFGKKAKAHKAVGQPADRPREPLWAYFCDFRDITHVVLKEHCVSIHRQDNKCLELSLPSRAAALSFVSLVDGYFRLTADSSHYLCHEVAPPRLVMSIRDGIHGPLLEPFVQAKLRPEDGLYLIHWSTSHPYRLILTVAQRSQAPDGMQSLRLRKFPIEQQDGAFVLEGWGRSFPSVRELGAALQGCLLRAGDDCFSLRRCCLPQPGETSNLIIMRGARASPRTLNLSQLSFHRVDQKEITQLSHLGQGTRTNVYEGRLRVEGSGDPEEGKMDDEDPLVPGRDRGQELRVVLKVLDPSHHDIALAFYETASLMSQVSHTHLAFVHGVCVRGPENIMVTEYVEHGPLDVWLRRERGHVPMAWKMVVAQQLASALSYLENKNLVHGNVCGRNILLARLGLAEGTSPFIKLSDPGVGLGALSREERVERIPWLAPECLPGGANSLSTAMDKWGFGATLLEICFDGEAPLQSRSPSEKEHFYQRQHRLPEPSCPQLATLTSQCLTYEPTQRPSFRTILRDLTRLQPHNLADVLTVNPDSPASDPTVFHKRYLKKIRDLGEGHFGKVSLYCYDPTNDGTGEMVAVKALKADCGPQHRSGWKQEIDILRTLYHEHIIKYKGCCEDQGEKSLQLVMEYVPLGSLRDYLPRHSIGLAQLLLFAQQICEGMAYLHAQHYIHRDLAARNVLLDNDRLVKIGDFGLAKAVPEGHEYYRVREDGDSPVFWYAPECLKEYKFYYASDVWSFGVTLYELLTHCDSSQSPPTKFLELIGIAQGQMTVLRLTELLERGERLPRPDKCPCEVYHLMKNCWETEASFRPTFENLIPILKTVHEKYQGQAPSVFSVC
Tyk2 kinase domain (DH1), sequence (P29597 897-1176): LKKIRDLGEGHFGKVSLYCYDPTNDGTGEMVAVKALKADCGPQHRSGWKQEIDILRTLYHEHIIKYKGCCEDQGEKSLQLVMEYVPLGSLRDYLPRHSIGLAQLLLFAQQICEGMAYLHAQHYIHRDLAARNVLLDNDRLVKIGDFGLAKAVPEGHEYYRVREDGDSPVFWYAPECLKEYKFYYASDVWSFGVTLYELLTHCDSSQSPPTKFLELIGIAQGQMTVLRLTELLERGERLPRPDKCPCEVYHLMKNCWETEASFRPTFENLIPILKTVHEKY

Consider `CNc1cc(Nc2cccnc2OC)nc2c(C(=O)NC3CCC3)cnn12` [I-4], for which the inhibition at 10 µM in test [1] and in test [4] was below 50% throughout. In addition, the IC50 in test [2] is above 12500 nM; in test [5], below 100 nM. Besides, the Kd in test [3] was below 0.2 nM.

As for `CNc1cc(Nc2cc(F)cc(F)c2F)nc2c(C(=O)NC3CC3)cnn12` [I-5], the inhibition at 10 µM in test [1] and in test [4] was below 50% throughout. The values for the IC50 in test [2] and in test [5] were above 50000 nM and below 100 nM, respectively. This compound also showed a Kd in test [3] below 0.2 nM.

Take `CNc1cc(Nc2cc(C)cc(F)c2)nc2c(C(=O)NC3CC3)cnn12` [I-6]: the inhibition at 10 µM in test [1] and in test [4] was below 50% in each case. In addition, the IC50 in test [2] is above 50000 nM; in test [5] it was below 100 nM. This compound also displayed a Kd in test [3] below 0.2 nM.

For `CNc1cc(Nc2cccc(N3CCCC3=O)n2)nc2c(C(=O)NC3CC3)cnn12` [I-7], the inhibition at 10 µM in test [1] and in test [4] was below 50% in each case. Also, the IC50 in test [2] was above 12500 nM; in test [5], below 100 nM. Moreover, the equilibrium dissociation constant (Kd) in test [3] was below 0.2 nM.

For the compound `CNc1cc(Nc2cccc(-c3nccs3)c2Cl)nc2c(C(N)=O)cnn12` [I-16], the inhibition at 10 µM is above 90% in test [1] and 70 to 90% in test [4]. Besides, the IC50 in test [2] is above 2500 nM; in test [5] it was below 100 nM. The Kd in test [3] was 0.2 to 1 nM.

With `CNc1cc(Nc2cccc(-c3cnn(C)c3)c2Cl)nc2c(C(N)=O)cnn12` [I-17], the inhibition at 10 µM is 70 to 90% in test [1] and below 50% in test [4]. Moreover, the concentration for half-maximal inhibition (IC50) in test [2] is above 2500 nM; in test [5], below 100 nM. The Kd in test [3] was below 0.2 nM.

Take `CNc1cc(Nc2cc(C)cn(-c3cnn(C)c3)c2=O)nc2c(C(N)=O)cnn12` [I-31]: the inhibition at 10 µM in test [1] and in test [4] was below 50% each time. In addition, the figures for the IC50 in test [2] and in test [5] were above 300 nM and 100 to 500 nM, respectively. This compound also came in with a dissociation constant Kd in test [3] below 0.2 nM.

As to `CCn1cc(Cl)cc(Nc2cc(NC)n3ncc(C(N)=O)c3n2)c1=O` [I-35], the inhibition at 10 µM in test [1] and in test [4] was below 50% in each case. The results for the IC50 in test [2] and in test [5] were above 300 nM and below 100 nM, respectively. The compound also displayed a Kd in test [3] below 0.2 nM.

With `CNc1cc(-c2c[nH]c3c(C)cc(C)cc23)nc2c(C(N)=O)cnn12` [I-36, 5-(5,7-dimethyl-1H-indol-3-yl)-7-(methylamino)pyrazolo[1,5-a]pyrimidine-3-carboamide], the inhibition at 10 µM in test [1] and in test [4] was below 50% throughout. The IC50 is above 12500 nM in test [2] and below 100 nM in test [5]. Also, the Kd in test [3] is below 0.2 nM.

As for `CNc1cc(Nc2cccc(N3CCCC3=O)n2)nc2c(C(N)=O)cnn12` [I-47], the inhibition at 10 µM in test [1] and in test [4] was below 50% each time. Moreover, the figures for the IC50 in test [2] and in test [5] were above 300 nM and below 100 nM, respectively. This compound had a dissociation constant (Kd) in test [3] below 0.2 nM.

In the case of `CNc1cc(Nc2cccnc2OC(C)C)nc2c(C(N)=O)cnn12` [I-72], the inhibition at 10 µM in test [1] and in test [4] was below 50% in each case. For the same compound, the figures for the half-maximal inhibitory concentration (IC50) in test [2] and in test [5] were above 12500 nM and 100 to 500 nM, respectively. The same compound displayed an equilibrium dissociation constant (Kd) in test [3] below 0.2 nM.

For the compound `CNc1cc(Nc2cccc(N3CCCC3=O)n2)nc2c(C(=O)NC3CCC3)cnn12` [I-94], the inhibition at 10 µM in test [1] and in test [4] was below 50% throughout. Besides, the figures for the half-inhibitory concentration (IC50) in test [2] and in test [5] were above 50000 nM and below 100 nM, respectively. In test [3], the Kd is below 0.2 nM.

In the case of `CNc1cc(Nc2cccn(-c3cnc(C(C)(C)O)cn3)c2=O)nc2c(C(=O)NC3CCC3)cnn12` [I-95], the inhibition at 10 µM in test [1] and in test [4] was below 50% each time. The figures for the half-inhibitory concentration (IC50) in test [2] and in test [5] were above 50000 nM and below 100 nM, respectively. Moreover, the Kd in test [3] is below 0.2 nM.

With `CNc1cc(Nc2cccc(N3CCOC3=O)n2)nc2c(C(=O)NC3CCC3)cnn12` [I-105], the figures for the inhibition at 10 µM in test [1] and in test [4] were below 50% and 50 to 70%, respectively. The 50% inhibitory concentration (IC50) was above 12500 nM in test [2] and below 100 nM in test [5]. The compound further came in with an equilibrium dissociation constant (Kd) in test [3] below 0.2 nM.

In the case of `CNc1cc(Nc2cccnc2OC)nc2c(C(=O)N[C@H]3C[C@H]3F)cnn12` [I-110], the inhibition at 10 µM in test [1] and in test [4] was below 50% in each case. The IC50 in test [2] is above 50000 nM; in test [5], below 100 nM. Further, the equilibrium dissociation constant (Kd) in test [3] is below 0.2 nM.

Consider `CNc1cc(Nc2cccn(-c3ccc(F)cn3)c2=O)nc2c(C(=O)N[C@H]3C[C@H]3F)cnn12` [I-115], for which the inhibition at 10 µM in test [1] and in test [4] was below 50% each time. Besides, the IC50 is above 12500 nM in test [2] and below 100 nM in test [5]. The same compound registered a Kd in test [3] below 0.2 nM.

With `CCOc1ccc(-n2cccc(Nc3cc(NC)n4ncc(C(=O)N[C@H]5C[C@H]5F)c4n3)c2=O)nn1` [I-117], the inhibition at 10 µM in test [1] and in test [4] was below 50% each time. In addition, the figures for the IC50 in test [2] and in test [5] were above 2500 nM and below 100 nM, respectively. The Kd in test [3] was below 0.2 nM.

As for `CNc1cc(Nc2cccn(-c3ccc(C(=O)N4CCCC4)cn3)c2=O)nc2c(C(=O)NC3CCC3)cnn12` [I-121], the inhibition at 10 µM in test [1] and in test [4] was below 50% each time. Further, the 50% inhibitory concentration (IC50) in test [2] was above 12500 nM; in test [5], 100 to 500 nM. The same compound registered a Kd in test [3] below 0.2 nM.

As for `CNc1cc(Nc2cccn(-c3cnc(C(=O)N(C)C)cn3)c2=O)nc2c(C(=O)NC3CCC3)cnn12` [I-122], the inhibition at 10 µM in test [1] and in test [4] was below 50% throughout. The results for the half-inhibitory concentration (IC50) in test [2] and in test [5] were above 2500 nM and below 100 nM, respectively. Moreover, in test [3], the Kd was below 0.2 nM.

For `CNc1cc(Nc2cccn(-c3cccc(C(C)(C)O)n3)c2=O)nc2c(C(=O)N[C@H]3C[C@H]3F)cnn12` [I-123], the inhibition at 10 µM in test [1] and in test [4] was below 50% each time. Besides, the results for the half-inhibitory concentration (IC50) in test [2] and in test [5] were above 50000 nM and below 100 nM, respectively. In addition, the Kd in test [3] was below 0.2 nM.

For `CNc1cc(Nc2cccn(-c3cnc(C(=O)N(C)C)cn3)c2=O)nc2c(C(=O)N[C@H]3C[C@H]3F)cnn12` [I-126], the inhibition at 10 µM in test [1] and in test [4] was below 50% each time. Moreover, the IC50 in test [2] was above 50000 nM; in test [5], below 100 nM. This compound also gave an equilibrium dissociation constant (Kd) in test [3] below 0.2 nM.

For `CNc1cc(Nc2cccn(-c3cnc(C(=O)N(C)C)cn3)c2=O)nc2c(C(=O)NC3CC3)cnn12` [I-127, N-cyclopropyl-5-((1-(5-(dimethylcarbamoyl)pyrazin-2-yl)-2-oxo-1,2-dihydropyridin-3-yl)amino)-7-(methylamino)pyrazolo[1,5-a]pyrimidine-3-carboxamide], the inhibition at 10 µM in test [1] and in test [4] was below 50% in each case. The IC50 in test [2] was above 12500 nM; in test [5], below 100 nM. The dissociation constant (Kd) in test [3] is below 0.2 nM.

`CNc1cc(Nc2cccn(-c3cccc(C)n3)c2=O)nc2c(C(=O)N[C@H]3C[C@H]3F)cnn12` [I-131]: the inhibition at 10 µM in test [1] and in test [4] was below 50% in each case. Besides, the concentration for half-maximal inhibition (IC50) is above 12500 nM in test [2] and below 100 nM in test [5]. The compound further registered a Kd in test [3] of 1 to 10 nM.

Broadly, the inhibition is the percentage by which the read-out fell short of the control. One may read the IC50 as the concentration that gives 50% inhibition. As usually defined, the Kd is the equilibrium constant for the complex coming apart. High values mean a looser complex, low ones a tighter complex.
